US9663496B2, “AMPK-activating heterocyclic compounds and methods for using the same” (Rigel Pharmaceuticals, Inc., priority 2010, dated 2017)

Target: AMPK
Experiment: AMPK activation, enzyme-linked immunosorbent assay
Assay type: biochemical
Details: EC50 for AMPK activation, ELISA
Summary of the method: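 Activator screen performed per well-known kit methods.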

SMILES	EC50 [nM]
N#Cc1ccc(CN2CCC(NC(=O)c3ccc(C(=O)N4CCC(C(=O)c5ccc(-n6cccn6)cc5)CC4)cn3)CC2)cc1 [Compound 375, 5-(4-(4-(1H-pyrazol-1-yl)benzoyl)piperidine-1-carbonyl)-N-(1-(4-cyanobenzyl)piperidin-4-yl)picolinamide]	< 500
COc1cccc(CN2CCC(NC(=O)c3ccc(C(=O)N4CCC(Oc5ccc(S(C)(=O)=O)cc5)CC4)nc3)CC2)c1 [Compound 238, N-(1-(3-methoxybenzyl)piperidin-4-yl)-6-(4-(4-(methylsulfonyl)phenoxy)piperidine-1-carbonyl)nicotinamide]	1000 to 5000
COc1ccc(C(=O)C2CCN(C(=O)c3ccc(C(=O)NC4CCN(Cc5ccc(N6CCCC6)cc5)CC4)nc3)CC2)cc1 [Compound 194, 5-(4-(4-methoxybenzoyl)piperidine-1-carbonyl)-N-(1-(4-(pyrrolidin-1-yl)benzyl)piperidin-4-yl)picolinamide]	< 500
N#Cc1ccc(CN2CCC(NC(=O)c3ccc(C(=O)NC4CCN(Cc5ccc(C#N)cc5)CC4)nn3)CC2)cc1 [Compound 386, N3,N6-bis(1-(4-cyanobenzyl)piperidin-4-yl)pyridazine-3,6-dicarboxamide]	> 10000
COc1ccc(CN2CCC(NC(=O)c3ccc(C(=O)N4CCC(C(=O)c5ccc(F)cc5F)CC4)nc3)CC2)cc1 [Compound 347, 6-(4-(2,4-difluorobenzoyl)piperidine-1-carbonyl)-N-(1-(4-methoxybenzyl)piperidin-4-yl)nicotinamide]	< 500
N#Cc1ccc(CN2CCC(NC(=O)c3ccc(C(=O)N4CCC(Oc5ccc(F)cc5F)CC4)nc3)CC2)cc1 [Compound 345, N-(1-(4-cyanobenzyl)piperidin-4-yl)-6-(4-(2,4-difluorophenoxy)piperidine-1-carbonyl)nicotinamide]	< 500
COc1ccc(C(=O)N2CCN(C(=O)c3ccc(C(=O)NC4CCN(Cc5ccc(C#N)cc5)CC4)nc3)CC2)cc1 [Compound 77, N-(1-(4-cyanobenzyl)piperidin-4-yl)-5-(4-(4-methoxybenzoyl)piperazine-1-carbonyl)picolinamide]	< 500
COc1ccc(CN2CCC(NC(=O)c3ccc(C(=O)N4CCC(Oc5ccc(C(=O)C6CC6)cc5)CC4)nc3)CC2)cc1 [Compound 458, 6-(4-(4-(cyclopropanecarbonyl)phenoxy)piperidine-1-carbonyl)-N-(1-(4-methoxybenzyl)piperidin-4-yl)nicotinamide]	< 500
CS(=O)(=O)c1ccc(N2CCN(C(=O)c3ccc(C(=O)NC4CCN(Cc5ccc(C#N)cc5)CC4)nc3)CC2)cc1 [Compound 250, N-(1-(4-cyanobenzyl)piperidin-4-yl)-5-(4-(4-(methylsulfonyl)phenyl)piperazine-1-carbonyl)picolinamide]	< 500
N#Cc1ccc(CN2CCC(NC(=O)c3ccc(NC4CCN(c5ccccc5)CC4)cn3)CC2)cc1 [Compound 126, N-(1-(4-cyanobenzyl)piperidin-4-yl)-5-(1-phenylpiperidin-4-ylamino)picolinamide]	< 500
CC(=O)Nc1ccc(OC2CCN(C(=O)c3ccc(C(=O)NC4CCN(Cc5ccc(F)cc5)CC4)cn3)CC2)cc1 [Compound 406, 6-(4-(4-acetamidophenoxy)piperidine-1-carbonyl)-N-(1-(4-fluorobenzyl)piperidin-4-yl)nicotinamide]	500 to 1000
CS(=O)(=O)Nc1ccc(CN2CCC(NC(=O)c3ccc(C(=O)N4CCC(C(=O)c5ccc(F)cc5F)CC4)nc3)CC2)cc1 [Compound 216, 6-(4-(2,4-difluorobenzoyl)piperidine-1-carbonyl)-N-(1-(4-(methylsulfonamido)benzyl)piperidin-4-yl)nicotinamide]	> 10000
O=C(NC1CCN(Cc2ccc(F)cc2)CC1)c1ccc(C(=O)N2CCC(C(=O)c3ccc(-n4cccn4)cc3)CC2)nc1 [Compound 392, 6-(4-(4-(1H-pyrazol-1-yl)benzoyl)piperidine-1-carbonyl)-N-(1-(4-fluorobenzyl)piperidin-4-yl)nicotinamide]	< 500
CC(=O)c1ccc(Oc2ccc(NC(=O)c3ccc(C(=O)N4CCC(Oc5ccc(S(=O)(=O)C6CC6)cc5)CC4)nc3)cn2)cc1 [Compound 486, N-(6-(4-acetylphenoxy)pyridin-3-yl)-6-(4-(4-(cyclopropylsulfonyl)phenoxy)piperidine-1-carbonyl)nicotinamide]	< 500
N#Cc1ccc(CN2CCC(NC(=O)c3ccc(N4CCN(Cc5ccccc5)CC4)cn3)CC2)cc1 [Compound 110, 5-(4-benzylpiperazin-1-yl)-N-(1-(4-cyanobenzyl)piperidin-4-yl)picolinamide]	1000 to 5000
N#Cc1ccc(O[C@H]2CC[C@@H](NC(=O)c3ccc(C(=O)N4CCC(C(=O)c5ccc(F)cc5)CC4)cn3)CC2)cc1 [Compound 151]	< 500
O=C(N[C@H]1CC[C@@H](Oc2ccc(F)cc2)CC1)c1ccc(C(=O)N2CCC(C(=O)c3ccc(F)cc3)CC2)cn1 [Compound 304, 5-(4-(4-fluorobenzoyl)piperidine-1-carbonyl)-N-((cis)-4-(4-fluorophenoxy)cyclohexyl)picolinamide]	< 500
O=C(NC1CCN(Cc2cccc(OC(F)(F)F)c2)CC1)c1ccc(C(=O)N2CCC(C(=O)c3ccc(N4CCCC4)cc3)CC2)nc1 [Compound 441, 6-(4-(4-(pyrrolidin-1-yl)benzoyl)piperidine-1-carbonyl)-N-(1-(3-(trifluoromethoxy)benzyl)piperidin-4-yl)nicotinamide]	< 500
COc1ccc(O[C@H]2CC[C@@H](NC(=O)c3ccc(C(=O)N4CCC(C(=O)c5ccc(OC)cc5)CC4)cn3)CC2)cc1 [Compound 184, 5-(4-(4-methoxybenzoyl)piperidine-1-carbonyl)-N-((cis)-4-(4-methoxyphenoxy)cyclohexyl)picolinamide]	< 500
CC(=O)Nc1ccc(OC2CCN(C(=O)c3ccc(C(=O)Nc4ccc(Oc5ccc(F)cc5)nc4)nc3)CC2)cc1 [Compound 408, 5-(4-(4-acetamidophenoxy)piperidine-1-carbonyl)-N-(6-(4-fluorophenoxy)pyridin-3-yl)picolinamide]	< 500
N#Cc1ccc(CN2CCC(NC(=O)c3ccc(NC4CCN(c5ccc(C#N)cc5)CC4)cn3)CC2)cc1 [Compound 267, N-(1-(4-cyanobenzyl)piperidin-4-yl)-5-(1-(4-cyanophenyl)piperidin-4-ylamino)picolinamide]	< 500
COc1ccc(OC2CCN(C(=O)c3ccc(C(=O)NC4CCN(Cc5ccc(C#N)cc5)CC4)cn3)CC2)c(NS(C)(=O)=O)c1 [Compound 389, N-(1-(4-cyanobenzyl)piperidin-4-yl)-6-(4-(4-methoxy-2-(methylsulfonamido)phenoxy)piperidine-1-carbonyl)nicotinamide]	1000 to 5000
O=C(Nc1ccc(Oc2ccc(F)cc2)nc1)c1ccc(C(=O)N2CCC(C(=O)c3ccc(N4CCCC4)cc3)CC2)cn1 [Compound 368, N-(6-(4-fluorophenoxy)pyridin-3-yl)-5-(4-(4-(pyrrolidin-1-yl)benzoyl)piperidine-1-carbonyl)picolinamide]	< 500
